The text below walks through data of ChEMBL document CHEMBL3132769, “Fragment growing to retain or alter the selectivity of anchored kinase hinge-binding fragments” (Medchemcomm, 2014).

For assay [1], the target named is Proto-oncogene tyrosine-protein kinase Src (Homo sapiens) (UniProt P12931). The assay can be described thus: Inhibition of human full length SRC expressed in baculovirus assessed as substrate phosphorylation using fluorescence-labelled peptides as substrate at 2 uM after 90 mins by microfluidic peptide phosphorylation assay.
For assay [2], the target named is T1, Serine/threonine-protein kinase BRSK1 (Homo sapiens) (UniProt Q8TDC3).
T1 sequence (whole entry): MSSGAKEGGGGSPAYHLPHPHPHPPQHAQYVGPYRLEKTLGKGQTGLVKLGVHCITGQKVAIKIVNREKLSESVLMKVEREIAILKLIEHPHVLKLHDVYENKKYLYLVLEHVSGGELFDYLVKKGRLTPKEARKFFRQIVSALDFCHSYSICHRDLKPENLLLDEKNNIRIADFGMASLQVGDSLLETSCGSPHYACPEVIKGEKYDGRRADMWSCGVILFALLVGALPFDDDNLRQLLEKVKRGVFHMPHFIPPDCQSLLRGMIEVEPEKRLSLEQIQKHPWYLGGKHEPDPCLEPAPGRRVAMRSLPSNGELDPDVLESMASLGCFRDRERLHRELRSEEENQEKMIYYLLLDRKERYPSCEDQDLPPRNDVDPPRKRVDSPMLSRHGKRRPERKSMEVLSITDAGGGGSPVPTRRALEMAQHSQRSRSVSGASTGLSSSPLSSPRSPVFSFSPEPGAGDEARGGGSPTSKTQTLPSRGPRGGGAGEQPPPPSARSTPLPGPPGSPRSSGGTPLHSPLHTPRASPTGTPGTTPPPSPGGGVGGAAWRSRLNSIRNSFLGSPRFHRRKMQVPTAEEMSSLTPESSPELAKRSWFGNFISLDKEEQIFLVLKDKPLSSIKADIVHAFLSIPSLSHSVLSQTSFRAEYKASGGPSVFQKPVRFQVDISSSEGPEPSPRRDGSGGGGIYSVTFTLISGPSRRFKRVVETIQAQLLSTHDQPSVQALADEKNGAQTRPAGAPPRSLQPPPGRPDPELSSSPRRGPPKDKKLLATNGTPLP
As to the kind of experiment: Inhibition of human full length BRSK1 expressed in baculovirus assessed as substrate phosphorylation using fluorescence-labelled peptides as substrate at 0.06 uM after 90 mins by microfluidic peptide phosphorylation assay.

Assay [3] concerns T2, Receptor-type tyrosine-protein kinase FLT3 (Homo sapiens), P36888 [D835Y].
T2 sequence (whole entry): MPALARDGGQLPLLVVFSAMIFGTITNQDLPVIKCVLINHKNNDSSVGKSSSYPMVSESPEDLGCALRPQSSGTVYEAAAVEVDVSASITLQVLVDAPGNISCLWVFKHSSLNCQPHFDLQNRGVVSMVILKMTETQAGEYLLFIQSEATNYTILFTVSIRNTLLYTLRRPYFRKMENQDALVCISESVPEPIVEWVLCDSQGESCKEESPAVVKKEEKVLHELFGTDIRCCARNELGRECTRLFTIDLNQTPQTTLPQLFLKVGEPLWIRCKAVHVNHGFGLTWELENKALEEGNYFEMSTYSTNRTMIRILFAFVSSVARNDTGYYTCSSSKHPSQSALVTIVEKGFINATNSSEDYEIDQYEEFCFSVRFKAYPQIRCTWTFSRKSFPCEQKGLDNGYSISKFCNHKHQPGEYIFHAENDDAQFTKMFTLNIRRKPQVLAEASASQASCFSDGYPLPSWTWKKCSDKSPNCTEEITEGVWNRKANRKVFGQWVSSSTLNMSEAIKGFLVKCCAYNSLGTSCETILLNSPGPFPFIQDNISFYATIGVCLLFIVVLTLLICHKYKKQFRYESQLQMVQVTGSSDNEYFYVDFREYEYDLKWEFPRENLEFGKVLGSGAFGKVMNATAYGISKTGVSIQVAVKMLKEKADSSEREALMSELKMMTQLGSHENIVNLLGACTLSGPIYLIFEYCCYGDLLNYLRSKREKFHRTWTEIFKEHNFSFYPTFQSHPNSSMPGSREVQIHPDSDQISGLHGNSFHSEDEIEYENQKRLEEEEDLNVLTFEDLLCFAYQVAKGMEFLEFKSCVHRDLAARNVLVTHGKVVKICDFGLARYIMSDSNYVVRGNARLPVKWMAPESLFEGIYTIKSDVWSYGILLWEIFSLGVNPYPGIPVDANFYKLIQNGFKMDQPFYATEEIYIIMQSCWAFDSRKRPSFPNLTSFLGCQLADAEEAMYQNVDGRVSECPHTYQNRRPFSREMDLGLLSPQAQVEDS
The assay can be described thus: Inhibition of human FLT3 D835Y mutant catalytic domain expressed in baculovirus assessed as substrate phosphorylation using fluorescence-labelled peptides as substrate at 0.06 uM after 90 mins by microfluidic peptide phosphorylation assay.

Assay [4] deals with RAC-alpha serine/threonine-protein kinase (Homo sapiens) (UniProt P31749). As to the kind of experiment: Inhibition of human AKT1 catalytic domain expressed in baculovirus assessed as substrate phosphorylation using fluorescence-labelled peptides as substrate at 95 uM after 90 mins by microfluidic peptide phosphorylation assay.
For assay [5], the target named is Proto-oncogene tyrosine-protein kinase Src (Homo sapiens) (UniProt P12931). As to the kind of experiment: Inhibition of human full length SRC expressed in baculovirus assessed as substrate phosphorylation using fluorescence-labelled peptides as substrate at 8 uM after 90 mins by microfluidic peptide phosphorylation assay.
Assay [6] addresses T3, Serine/threonine-protein kinase Chk1 (Homo sapiens) (UniProt O14757).
T3 sequence (whole entry): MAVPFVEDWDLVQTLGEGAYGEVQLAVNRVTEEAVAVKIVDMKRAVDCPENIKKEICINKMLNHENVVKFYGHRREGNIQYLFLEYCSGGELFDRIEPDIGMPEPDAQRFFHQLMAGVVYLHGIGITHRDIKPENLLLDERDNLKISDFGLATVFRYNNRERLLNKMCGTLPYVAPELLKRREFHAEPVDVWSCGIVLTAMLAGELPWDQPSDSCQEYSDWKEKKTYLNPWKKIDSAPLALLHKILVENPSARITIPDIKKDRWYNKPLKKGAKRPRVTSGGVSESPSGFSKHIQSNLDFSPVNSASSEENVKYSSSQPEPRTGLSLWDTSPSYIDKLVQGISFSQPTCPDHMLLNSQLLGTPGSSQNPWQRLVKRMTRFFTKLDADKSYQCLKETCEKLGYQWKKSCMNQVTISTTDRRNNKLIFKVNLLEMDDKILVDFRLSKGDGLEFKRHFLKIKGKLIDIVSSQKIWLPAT
The assay can be described thus: Inhibition of human full length CHK1 expressed in baculovirus assessed as substrate phosphorylation using fluorescence-labelled peptides as substrate at 70 uM after 90 mins by microfluidic peptide phosphorylation assay.

Assay [7] concerns the target Protein kinase C theta type (Homo sapiens) (UniProt Q04759). As to the kind of experiment: Inhibition of human truncated PKC theta expressed in baculovirus assessed as substrate phosphorylation using fluorescence-labelled peptides as substrate at […] after 90 mins by microfluidic peptide phosphorylation assay.
Assay [8] deals with MAP/microtubule affinity-regulating kinase 3 (Homo sapiens) (UniProt P27448). As to the kind of experiment: Inhibition of human full length c-TAK1 expressed in Escherichia coli cell assessed as substrate phosphorylation using fluorescence-labelled peptides as substrate at 1000 uM after 90 mins by microfluidic peptide phosphorylation assay.
The subject of assay [9] is T2, Receptor-type tyrosine-protein kinase FLT3 (Homo sapiens), P36888 [D835Y]. As to the kind of experiment: Inhibition of human FLT3 D835Y mutant catalytic domain expressed in baculovirus assessed as substrate phosphorylation using fluorescence-labelled peptides as substrate at 1000 uM after 90 mins by microfluidic peptide phosphorylation assay.

Chain of Proto-oncogene tyrosine-protein kinase Src (Homo sapiens) (P12931 2-536 limits assumed): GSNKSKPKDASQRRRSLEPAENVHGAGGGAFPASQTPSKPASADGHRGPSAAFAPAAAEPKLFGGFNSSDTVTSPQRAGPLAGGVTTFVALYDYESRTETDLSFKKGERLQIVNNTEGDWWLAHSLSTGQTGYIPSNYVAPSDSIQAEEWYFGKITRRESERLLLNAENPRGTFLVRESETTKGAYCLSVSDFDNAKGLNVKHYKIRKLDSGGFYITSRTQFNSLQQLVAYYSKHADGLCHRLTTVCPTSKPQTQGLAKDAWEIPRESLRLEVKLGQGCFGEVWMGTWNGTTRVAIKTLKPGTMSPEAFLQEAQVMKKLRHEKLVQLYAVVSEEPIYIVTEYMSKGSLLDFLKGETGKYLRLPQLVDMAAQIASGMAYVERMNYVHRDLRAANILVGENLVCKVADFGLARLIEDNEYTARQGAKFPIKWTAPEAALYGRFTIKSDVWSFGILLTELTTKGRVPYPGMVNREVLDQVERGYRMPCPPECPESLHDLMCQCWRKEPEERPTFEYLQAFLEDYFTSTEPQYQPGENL
Chain of MAP/microtubule affinity-regulating kinase 3 (Homo sapiens) (P27448 whole entry, looked up, the tested form may be a part): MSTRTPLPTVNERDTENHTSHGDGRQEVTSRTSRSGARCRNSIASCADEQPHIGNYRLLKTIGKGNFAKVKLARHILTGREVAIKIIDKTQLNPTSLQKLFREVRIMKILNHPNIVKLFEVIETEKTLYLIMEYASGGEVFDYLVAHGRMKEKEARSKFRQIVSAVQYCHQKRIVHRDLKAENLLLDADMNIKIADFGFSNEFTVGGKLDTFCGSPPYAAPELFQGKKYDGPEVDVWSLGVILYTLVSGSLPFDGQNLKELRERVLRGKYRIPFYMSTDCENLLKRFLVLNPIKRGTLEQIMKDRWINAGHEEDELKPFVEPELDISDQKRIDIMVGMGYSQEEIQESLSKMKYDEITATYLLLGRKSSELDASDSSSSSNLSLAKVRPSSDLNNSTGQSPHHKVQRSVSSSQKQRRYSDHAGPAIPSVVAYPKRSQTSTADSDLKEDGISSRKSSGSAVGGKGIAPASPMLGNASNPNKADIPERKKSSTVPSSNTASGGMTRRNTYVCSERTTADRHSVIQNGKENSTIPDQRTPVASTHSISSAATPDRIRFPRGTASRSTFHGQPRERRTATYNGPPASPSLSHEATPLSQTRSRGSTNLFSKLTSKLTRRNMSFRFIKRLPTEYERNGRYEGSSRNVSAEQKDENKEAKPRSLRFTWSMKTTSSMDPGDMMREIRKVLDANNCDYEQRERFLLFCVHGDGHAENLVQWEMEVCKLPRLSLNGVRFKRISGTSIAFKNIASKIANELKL
Chain of Protein kinase C theta type (Homo sapiens) (Q04759 whole entry, looked up, the tested form may be a part): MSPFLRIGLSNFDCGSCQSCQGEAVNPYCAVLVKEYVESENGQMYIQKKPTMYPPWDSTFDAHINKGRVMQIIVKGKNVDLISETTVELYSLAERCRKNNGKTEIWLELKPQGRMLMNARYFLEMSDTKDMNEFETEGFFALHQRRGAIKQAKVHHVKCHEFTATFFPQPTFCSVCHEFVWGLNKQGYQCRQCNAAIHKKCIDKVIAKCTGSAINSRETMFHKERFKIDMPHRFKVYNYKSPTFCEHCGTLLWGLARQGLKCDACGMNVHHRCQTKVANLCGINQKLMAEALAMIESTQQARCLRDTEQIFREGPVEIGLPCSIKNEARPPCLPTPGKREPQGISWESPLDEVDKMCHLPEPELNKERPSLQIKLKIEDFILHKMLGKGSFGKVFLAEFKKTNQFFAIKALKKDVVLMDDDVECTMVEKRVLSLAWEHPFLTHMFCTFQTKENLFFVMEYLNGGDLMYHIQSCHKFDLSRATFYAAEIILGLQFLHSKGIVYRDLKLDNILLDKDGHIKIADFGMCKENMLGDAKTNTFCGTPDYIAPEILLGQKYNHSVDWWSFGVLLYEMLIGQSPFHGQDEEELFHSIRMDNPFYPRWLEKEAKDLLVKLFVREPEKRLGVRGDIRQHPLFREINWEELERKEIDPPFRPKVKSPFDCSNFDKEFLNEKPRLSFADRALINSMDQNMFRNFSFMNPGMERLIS
Chain of RAC-alpha serine/threonine-protein kinase (Homo sapiens) (P31749 whole entry, the tested form may be a part): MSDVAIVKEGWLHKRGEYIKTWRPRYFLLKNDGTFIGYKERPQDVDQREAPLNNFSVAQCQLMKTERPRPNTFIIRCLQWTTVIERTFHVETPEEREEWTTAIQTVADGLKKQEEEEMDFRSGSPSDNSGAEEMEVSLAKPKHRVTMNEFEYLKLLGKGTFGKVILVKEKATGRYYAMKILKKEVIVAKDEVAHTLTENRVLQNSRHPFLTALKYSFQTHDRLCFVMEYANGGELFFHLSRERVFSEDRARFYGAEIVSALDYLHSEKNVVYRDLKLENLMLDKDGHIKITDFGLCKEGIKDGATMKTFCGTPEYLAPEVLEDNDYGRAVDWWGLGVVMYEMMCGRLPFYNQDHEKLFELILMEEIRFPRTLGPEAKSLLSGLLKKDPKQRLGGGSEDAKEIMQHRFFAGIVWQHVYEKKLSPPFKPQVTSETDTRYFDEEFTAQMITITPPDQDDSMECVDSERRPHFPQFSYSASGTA

As for `NC1CCN(c2ncnc3[nH]ccc23)CC1`, the inhibition in [1] was found to be 0%.
Consider `NC1(Cc2ccc(Cl)cc2)CCN(c2ncnc3[nH]ccc23)CC1`, for which the inhibition in assay [2] and in assay [3] was 0% throughout.
For the molecule `NCCc1ccc(-c2ncnc3[nH]cnc23)cc1`, the inhibition in assay [4] turned out to be 81%.
Turning to `NCC1CCN(c2ncnc3[nH]ccc23)CC1`, in assay [5], the inhibition turned out to be 1.5%.
Regarding `CNCc1ccc(-c2ncnc3[nH]cnc23)cc1`, in [6], the inhibition was 72%.
As to `COC(=O)c1cnc(Nc2cnc(C#N)cn2)cc1NCC1CCNCC1`, the inhibition in assay [7] amounted to 4%.
For the molecule `c1cnc2[nH]ccc2c1`, the inhibition in [8] worked out at 77%; in assay [9] it was 76%.
